Source: US9844546B2, “Antibody against human HIF hydroxylase” (OXFORD UNIVERSITY INNOVATION LIMITED, priority 2001, dated 2017)
Read-outs that look alike come from different tables or passages of the source.

B1: NODD: HIF-1α amino terminal ODD polypeptide (aa 343-417) with nuclear localisation sequences and c-myc tag, plasmid expressed (protein, UniProt Q16665 343-417, looked up, fragment)
chain: SGIIQHDLIFSLQQTECVLKPVESSDMKMTQLFTKVESEDTSSLFDKLKKEPDALTLLAPAAGDTIISLDFGSND
modifications: NLS and c-myc tag

What was measured:
[1] = test system: HIF-α prolyl-hydroxylase (HIF-PH) of cell extract; assay: Modifying activity (HIF-PH) of cell extract on HIF substrate (Gal/HIF-1α549-582/VP16 or 19:WT), pVHL capture assay; format: biochemical, mammalian
Method: The unlabelled HIF-1α substrate was immunopurified on beads, washed, and aliquots incubated under different test conditions in buffer or cell extract. After further washing, the beads were assayed for ability to interact with 35-S labelled pVHL IVTT (21) which was then visualised by fluorography.
The capture of labelled pVHL by different HIF substrates was monitored after exposure to various test conditions.
We went on to test a series of 2-oxoglutarate analogues which act as competitive inhibitors of this class of enzyme (29) for ability to inhibit HIF-PH as assessed by the ability of cell extracts to modify either HIF polypeptide (19:WT) or a HIF fusion protein (Gal/HIF-1α549-582/VP16) so as to promote pVHL capture. […] In one such experiment the effect of N-oxalylglycine on pVHL capture by a biotinylated HIF polypeptides as substrate was monitored. The WT:19 and 19:Pro564Hyp polypeptides described above were used as substrates. […] The effect of dimethyl-oxalyglycine on HIF-1α expression was also studied. HIF-1α immunoblot analysis of extracts of Hep3B and U2OS cells exposed to dimethyl-oxalylgylcine (0, 0.1 or 1.0 mM) for 6 hours was carried out. […]

clavaminate synthase = assay: Clavaminate synthase inhibition under standard assay conditions; format: biochemical, Streptomyces clavligerus
Text: These are commonly methyl or ethyl esters although others are possible.

[2] = test system: HIF hydroxylase (HPH activity); assay: HIF hydroxylase (HPH) inhibition, statements of the description; format: biochemical
[3] = molecular target: T1, HIF-1/VHL-1 interaction promoting activity of worm extract (Caenorhabditis elegans, UniProt G5EBV0); assay: Worm extract modification of C. elegans HIF-1, HA.VHL-1 interaction assay; format: biochemical; settings: antagonized by 5 mM 2-OG
T1 construct: from tissue; host or cells: whole-worm homogenate in hypotonic extraction buffer
Method: Assays for interaction between recombinant VHL and HIF polypeptides conformed to the following experimental design. Recombinant VHL and HIF polypeptides were produced separately in vitro. The HIF polypeptide was then pre-incubated with extract or a recombinant enzyme as described below, then mixed with VHL and incubated in EBC buffer (50 mM Tris pH 7.5, 150 mM NaCl, 0.5% v/v Igepal, 0.5 mM EDTA) at 4° C. for 1 hour, before immunoprecipitation with anti HA antibodies (for HA tagged VHL) or anti Gal antibodies (for Gal4HIF fusions) and analysis by PAGE (Jaakkola et al. (2001) supra).
Preincubation of C. elegans HIF-1 with worm extract or recombinant EGL-9 was for 30 min at 25° C. Preincubation of mammalian HIF-α polypeptides with cell extract or recombinant enzymes was at 37° C. for 10-30 min unless otherwise stated. For assays of recombinant enzymes, 2-oxoglutarate (2 mM), iron (100 μM), and ascorbate (2 mM) were added to the reaction buffer unless otherwise indicated. Reactions performed in hypoxia were in the stated atmospheric oxygen concentration (balance nitrogen) obtained using a controlled environment Invivo2 400 hypoxia work-station (Ruskinn Technologies) and buffers pre-equilibrated with the appropriate atmosphere. Reactions (50 μl) were performed in open Eppendorf tubes with mixing and stopped by the addition of 20 volumes desferrioxamine (100 μM}. […]

VHL E3 ubiquitin ligase = molecular target: T2, VHL E3 ubiquitin ligase (Homo sapiens, UniProt P40337); assay: VHL E3 interaction assay with 35S-labelled tat-ODD IVTT products; format: binding; settings: after modification by cell extracts
T2 construct: expressed in transfected cells; host or cells: 786-0 cells stably transfected with pcDNA3 VHL.HA (whole extract, anti-HA immunoprecipitation)
Text: Concordant with the ubiquitination assays discussed above NODD (HIF-1α 343-417) and CODD (HIF-1α 549-582) polypeptides, but not their corresponding proline mutants (HIF-1α 343-417/P402A and HIF-1α 549-582/P564G), bound to VHL E3 ubiquitin ligase after modification by cell extracts. The ^35S-methionine labelled recombinant polypeptides therefore interacted with VHL, supporting the results of the ubiquitination experiments discussed above. The interaction was enhanced by the presence of cell extracts which promote hydroxylation of the prolines at positions 402 and 564 ^19. In contrast, no binding occurred using peptides in which prolines were mutated.
For VHL E3 interaction assays ^35S-methionine labelled HIF-1a substrates were prepared by transcription/translation using TnT7 rabbit reticulocyte lysate (Promega). 100 μM DFO was added to the reaction to suppress prolyl hydroxylase activity of the reticulocyte lysate. Substrate modification was achieved by incubation of HIF-1α translate with RCC4 cell lysate in the presence of ferrous chloride (100 μM). Interaction with VHL E3 was analysed as described previously ^21.

U2OS and Hep3B cells = assay: HRE-dependent luciferase reporter assay after transient transfection of NODD/CODD plasmids; format: cell-based, human; settings: normoxic conditions, 24 hours
Text: Since normoxic HIFα degradation is saturable ^17 and depends on sub-regions within the ODD we tested whether peptides encoding the HIF-1α amino terminal ODD (NODD) and carboxy terminal ODD (CODD) ^21 could affect HIF activity as measured by hypoxia response element (HRE)-dependent reporter gene expression. Briefly, Degradation is prevented by the NODD and CODD polypeptides competing for prolyl hydroxylation and/or VHL binding, thereby blocking subsequent ubiquitination. We constructed plasmids encoding NODD (HIF-1-α aa 343-417) or CODD (HIF-1-α aa 549-582) linked to nuclear localisation sequences and a c-myc epitope tag. These plasmids were transiently co-transfected into U2OS and Hep3B cells with an HRE-dependent luciferase reporter plasmid. […]
For reporter gene assays DNA fragments encoding HIF-1α amino acids 343-417, 380-417, 390-417, 390-410, 343-400, 530-95, 530-82, 549-82, 556-74 and 530-62 were generated by PCR using oligonucleotides containing 5′ SacII or 3′ AscI sites and inserted into a pCMV/myc/nuc (Invitrogen) derivative bearing these sites in frame with the NLS and epitope tag. […] To generate tet-operator dependent plasmids the open reading frames from the aa343-417 and aa549-82 constructs were subcloned into pUHD 10 ^34. […]

U2OS cells = U2OS cells stably transfected with doxycycline-inducible NODD or CODD; format: cell-based, human; settings: doxycycline 0.2-3.2 μg/ml, peaking after 48 hours
Method: To explore further the therapeutic potential of NODD and CODD polypeptides to activate endogenous HIF we stably transfected U2OS cells with doxycycline-inducible NODD (doxNODD) and CODD constructs (doxCODD) encoding identical sequences to those used for transient transfections.
Cells stably transfected with NODD or CODD controlled by the tetracycline-inducible system were exposed to doxycycline. Cell extracts were prepared 0, 16, 24 and 48 hours after exposure to doxycycline. The extracts of doxNODD (HIF-1α aa343-417), doxCODD (HIF-1α aa549-82) and control cells (empty vector) were then immunoblotted for HIF-1α protein. Increased HIF-1α signals were detected from 16-48 hours following doxycycline administration in doxNODD and doxCODD cells but not in empty vector cells. Levels of HIF-1α induced by hypoxia were also measured for comparison. The endogenous HIF-1α induction was doxycycline dose (0.2-3.2 μg/ml) and time dependent, peaking after 48 hours. Maximal levels were about 20% and about 70% of HIF-1α levels seen following hypoxic or DFO treatment of the doxNODD and doxCODD cells respectively. […]
Stably transfected cell lines were generated by transfecting U2OS cells bearing the reverse tetracycline responsive transactivator ^34 and the tetKRAB silencer construct ^36 with pUHD/HIF plasmids. Following selection in G418 (1 mg/ml) individual colonies were picked. DoxNODD (F21) and doxCODD (myc19) clones expressed pUHD/HIF-1aa343-417/3NLS/c-myc and pUHD/HIF-1α aa549-82/3NLS/c-myc respectively. […]
Cell extracts were prepared in buffer (8M urea, 10% glycerol, 1% SDS, 5 mM DTT, 10 mM Tris/pH 6.8), separated by SDS-PAGE and transferred to Immobilon-P membrane (Millipore). Primary antibodies against HIF-1α, c-myc tag and HA tag were from Transduction Laboratories, Innogenex and Roche Molecular respectively. […]

T1 sequence (G5EBV0 whole entry): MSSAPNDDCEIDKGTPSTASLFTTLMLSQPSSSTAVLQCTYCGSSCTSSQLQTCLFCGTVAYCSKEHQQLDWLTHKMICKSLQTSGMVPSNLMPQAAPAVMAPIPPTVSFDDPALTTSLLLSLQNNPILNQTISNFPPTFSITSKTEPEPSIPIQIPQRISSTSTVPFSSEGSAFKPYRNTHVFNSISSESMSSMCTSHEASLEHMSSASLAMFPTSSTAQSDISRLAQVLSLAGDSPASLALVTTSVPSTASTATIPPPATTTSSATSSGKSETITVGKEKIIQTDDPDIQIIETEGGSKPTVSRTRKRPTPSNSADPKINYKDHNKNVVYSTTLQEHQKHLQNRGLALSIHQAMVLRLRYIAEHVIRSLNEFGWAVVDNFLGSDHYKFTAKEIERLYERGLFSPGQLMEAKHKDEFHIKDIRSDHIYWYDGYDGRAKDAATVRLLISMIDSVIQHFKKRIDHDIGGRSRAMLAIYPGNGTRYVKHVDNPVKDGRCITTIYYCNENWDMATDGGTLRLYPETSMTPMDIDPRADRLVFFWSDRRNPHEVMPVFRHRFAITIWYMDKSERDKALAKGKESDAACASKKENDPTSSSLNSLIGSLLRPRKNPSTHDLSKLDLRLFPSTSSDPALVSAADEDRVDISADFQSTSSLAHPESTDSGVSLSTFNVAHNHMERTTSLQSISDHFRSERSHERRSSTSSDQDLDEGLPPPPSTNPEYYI
T2 sequence (P40337 whole entry): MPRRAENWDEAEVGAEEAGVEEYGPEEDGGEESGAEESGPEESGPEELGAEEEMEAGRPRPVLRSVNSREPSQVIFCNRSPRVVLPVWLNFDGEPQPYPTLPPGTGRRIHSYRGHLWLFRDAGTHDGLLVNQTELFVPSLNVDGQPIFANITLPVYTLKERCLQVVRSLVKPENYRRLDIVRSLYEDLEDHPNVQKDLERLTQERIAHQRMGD
T2 sequence (Q15370 whole entry partner): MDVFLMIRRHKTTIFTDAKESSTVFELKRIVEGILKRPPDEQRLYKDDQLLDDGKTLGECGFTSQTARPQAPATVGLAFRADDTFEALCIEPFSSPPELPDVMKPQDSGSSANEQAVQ
T2 sequence (Q15369 whole entry partner): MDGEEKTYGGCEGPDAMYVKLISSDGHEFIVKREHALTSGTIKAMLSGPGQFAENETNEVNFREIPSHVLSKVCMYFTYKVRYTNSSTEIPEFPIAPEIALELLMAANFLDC
T2 sequence (Q13617 whole entry partner): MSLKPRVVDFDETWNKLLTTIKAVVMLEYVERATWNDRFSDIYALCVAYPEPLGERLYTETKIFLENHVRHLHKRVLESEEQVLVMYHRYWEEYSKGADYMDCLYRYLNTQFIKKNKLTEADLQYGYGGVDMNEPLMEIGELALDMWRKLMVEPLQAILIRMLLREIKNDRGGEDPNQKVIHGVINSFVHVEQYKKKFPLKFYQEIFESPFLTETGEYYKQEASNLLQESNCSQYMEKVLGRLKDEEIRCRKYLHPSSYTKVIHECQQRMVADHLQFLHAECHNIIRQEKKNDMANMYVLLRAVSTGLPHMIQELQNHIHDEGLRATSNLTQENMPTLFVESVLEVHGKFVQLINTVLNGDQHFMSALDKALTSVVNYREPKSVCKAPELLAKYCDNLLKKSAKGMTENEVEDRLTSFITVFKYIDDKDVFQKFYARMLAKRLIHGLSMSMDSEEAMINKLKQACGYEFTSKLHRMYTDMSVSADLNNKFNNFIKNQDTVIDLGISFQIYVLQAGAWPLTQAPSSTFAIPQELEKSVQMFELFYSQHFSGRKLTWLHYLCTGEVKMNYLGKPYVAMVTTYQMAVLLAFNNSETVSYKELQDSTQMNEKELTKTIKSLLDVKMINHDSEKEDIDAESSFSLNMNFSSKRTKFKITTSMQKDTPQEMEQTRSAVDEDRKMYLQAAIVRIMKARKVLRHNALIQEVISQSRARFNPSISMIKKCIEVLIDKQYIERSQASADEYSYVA
T2 sequence (P62877 whole entry partner): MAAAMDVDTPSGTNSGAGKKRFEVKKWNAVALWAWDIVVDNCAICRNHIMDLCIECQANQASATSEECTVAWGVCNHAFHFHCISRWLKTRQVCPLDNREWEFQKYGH

Molecule	pVHL binding after treatment with cell extract in the presence of inhibitor ([1]; 1 mM)	pVHL binding after treatment with cell extract in the presence of inhibitor ([1]; 5 mM)	inhibition of clavaminate synthase (clavaminate synthase)	inhibition of HIF hydroxylase / HPH [2]	inhibitory activity on HIF-1α modification, comparison of enantiomers ([1]; 0-2000 μM, RCC4 cell extract)	inhibition of worm extract activity promoting HIF-1/HA.VHL-1 interaction [3]	inhibition of HIF hydroxylase / HPH ([2]; listed as (S) oxaloalanine)	binding to VHL E3 ubiquitin ligase (VHL E3 ubiquitin ligase)	HRE-dependent relative luciferase activity (U2OS and Hep3B cells)	Maximal HIF-1α level relative to hypoxic or DFO treatment (U2OS cells)
O=C(O)CNC(=O)CCS [N-(Mercaptopropionyl)glycine]	strong binding of pVHL	reduced the amount of pVHL binding	not an inhibitor	inhibitors of HPH	–	–	–	–	–	–
C[C@H](NC(=O)C(=O)O)C(=O)O [N-oxalyl-2S-alanine]	–	–	–	act as inhibitors	higher inhibitory activity	strongly inhibited activity	preferred inhibitor	–	–	–
B1	–	–	–	–	–	–	–	bound	increased relative luciferase activity	about 20%
